Experimental data published in patent USRE40086E1, “Method for treating bacterial infection with novel 7-substituted-9-substituted amino 6-demethyl-6-deoxytetracyclines” (Wyeth Holdings Corporation, priority 1991, dated 2008).
Counter-ions that a name gives are not always drawn. Like-named read-outs stand apart in the source and are kept apart here.

Assays:
[1] = system: S. aureus UBMS 88-7 (tetK); experiment: MIC, agar dilution; type: cell-based; conditions: S. aureus UBMS 88-7 TetK; Table IA; unit assumed
E. coli UBMS 88-1 (tetB) = experiment: MIC, agar dilution; type: cell-based; conditions: E. coli UBMS 88-1 TetB; Table IA; unit assumed
E. coli J3272 TetD = experiment: MIC, agar dilution (Table IA); type: cell-based; conditions: unit assumed
E. coli J3272 Tet sens. = experiment: MIC, agar dilution (Table IA); type: cell-based; conditions: unit assumed
E. coli MC4100 TetB = experiment: MIC, agar dilution (Table IA); type: cell-based; conditions: unit assumed
S. aureus SMITH (sens) [2] = experiment: In vivo antibacterial evaluation, acute lethal infection in mice
Text: In Vivo Antibacterial Evaluation (Table VII)

E. coli UBMS 89-1 (tetM) = experiment: MIC, agar dilution; type: cell-based; conditions: E. coli UBMS 89-1 TetM; Table IA; unit assumed
[3] = system: S. aureus ATCC 29213 (Sensitive); experiment: MIC, agar dilution; type: cell-based; conditions: S. aureus ATCC 29213; Table IA; unit assumed
E. faecalis 12201 = experiment: MIC, agar dilution; type: cell-based; conditions: Enterococcus 12201; Table IA; unit assumed
E. coli #311 (MP) = experiment: MIC, agar dilution (Table IA); type: cell-based; conditions: unit assumed
E. coli PRP1 TetA = experiment: MIC, agar dilution (Table IA); type: cell-based; conditions: unit assumed
E. coli UBMS 90-5 = experiment: MIC, agar dilution (Table IA); type: cell-based; conditions: unit assumed
S. aureus ROSE (MP) = experiment: MIC, agar dilution (Table IA); type: cell-based; conditions: unit assumed
E. coli J3272 TetC = experiment: MIC, agar dilution (Table IA); type: cell-based; conditions: unit assumed
[4] = system: S. haemolyticus AVAH 88-3; experiment: MIC, agar dilution; type: cell-based; conditions: S. hemolyticus AVHAH 88-3; Table IA; unit assumed
E. coli J2175 = experiment: MIC, agar dilution (Table IA); type: cell-based; conditions: unit assumed
[5] = system: S. aureus UBMS 90-2 (tetM); experiment: MIC, agar dilution; type: cell-based; conditions: S. aureus UBMS 90-2 TetM; Table IA; unit assumed
S. aureus NEMC 8769/89-4 = experiment: MIC, agar dilution (Table IA); type: cell-based
[6] = system: S. aureus IVES 2943 (meth. resistant); experiment: MIC, agar dilution; type: cell-based; conditions: S. aureus IVES 2943; Table IA; unit assumed
E. coli UBMS 90-4 (tetM) = experiment: MIC, agar dilution; type: cell-based; conditions: E. coli UBMS 90-4 TetM; Table IA; unit assumed
E. coli BAJ9003 = experiment: MIC, agar dilution (Table IA); type: cell-based
E. coli ATCC 25922 = experiment: MIC, agar dilution; type: cell-based; conditions: E. coli ATCC 25922; Table IA; unit assumed
[7] = system: S. aureus Smith (Sensitive); experiment: MIC, agar dilution; type: cell-based; conditions: S. aureus SMITH (MP); Table IA; unit assumed
S. aureus SMITH (sens) [8] = experiment: In vivo antibacterial evaluation, acute lethal infection in mice; conditions: Intraveneous
[9] = system: S. aureus UBMS 90-3 (Sensitive); experiment: MIC, agar dilution; type: cell-based; conditions: S. aureus UBMS 90-3; Table IA; unit assumed
E. faecalis ATCC 29212 = experiment: MIC, agar dilution; type: cell-based; conditions: E. faecalis ATCC 29212; Table IA; unit assumed
[10] = system: E. coli UBMS 89-2 (Sensitive); experiment: MIC, agar dilution; type: cell-based; conditions: E. coli UBMS 89-2 Tet Sens.; Table IA; unit assumed
[11] = system: S. aureus UBMS 90-1 (tetM); experiment: MIC, agar dilution; type: cell-based; conditions: S. aureus UBMS 90-1 TetM; Table IA; unit assumed
[12] = system: X. maltophilia NEMC 87210; experiment: MIC, agar dilution (Table IA); type: cell-based; conditions: unit assumed
[13] = system: Ps. acruginosa ATCC 27853; experiment: MIC, agar dilution (Table IA); type: cell-based; conditions: unit assumed
S. mariescens FDOR 8733 = experiment: MIC, agar dilution (Table IA); type: cell-based; conditions: unit assumed
[14] = system: S. aureus IVES 1983 (meth. resistant); experiment: MIC, agar dilution; type: cell-based; conditions: S. aureus IVES 1983; Table IA; unit assumed
[15] = system: S. aureus UBMS 88-4 (Sensitive); experiment: MIC, agar dilution; type: cell-based; conditions: S. aureus UBMS 88-4; Table IA; unit assumed
[16] = system: S. aureus UBMS 88-5 (tetM); experiment: MIC, agar dilution; type: cell-based; conditions: S. aureus UBMS 88-5 TetM; Table IA; unit assumed

SMILES | Antibacterial activity (MIC) [1] [µg/mL] | Antibacterial activity (MIC) (E. coli UBMS 88-1 (tetB)) [µg/mL] | Antibacterial activity (MIC) (E. coli J3272 TetD) [µg/mL] | Antibacterial activity (MIC) (E. coli J3272 Tet sens.) [µg/mL] | Antibacterial activity (MIC) (E. coli MC4100 TetB) [µg/mL] | ED50 (S. aureus SMITH (sens) [2]; Oral) [mg/kg] | Antibacterial activity (MIC) (E. coli UBMS 89-1 (tetM)) [µg/mL] | Antibacterial activity (MIC) [3] [µg/mL] | Antibacterial activity (MIC) (E. faecalis 12201) [µg/mL] | Antibacterial activity (MIC) (E. coli #311 (MP)) [µg/mL] | Antibacterial activity (MIC) (E. coli PRP1 TetA) [µg/mL] | Antibacterial activity (MIC) (E. coli UBMS 90-5) [µg/mL] | Antibacterial activity (MIC) (S. aureus ROSE (MP)) [µg/mL] | Antibacterial activity (MIC) (E. coli J3272 TetC) [µg/mL] | Antibacterial activity (MIC) [4] [µg/mL] | Antibacterial activity (MIC) (E. coli J2175) [µg/mL] | Antibacterial activity (MIC) [5] [µg/mL] | Antibacterial activity (MIC) [6] [µg/mL] | Antibacterial activity (MIC) (E. coli UBMS 90-4 (tetM)) [µg/mL] | Antibacterial activity (MIC) (E. coli ATCC 25922) [µg/mL] | also measured
CN(C)c1cc(NC(=O)CN2CCCC2)c(O)c2c1CC1CC3[C@H](N(C)C)C(O)=C(C(N)=O)C(=O)[C@@]3(O)C(O)=C1C2=O (stereo partly drawn) [SS, [7S-(7alpha,10aalpha)]-N-[9-(Aminocarbonyl)-4,7-bis(dimethylamino)-5,5a,6,6a,7,10,10a,12-octahydro-1,8,10a,11-tetrahydroxy-10,12-dioxo-2-naphthacenyl]-1-pyrrolidineacetamide dihydrochloride] | 0.5 | 0.25 | 0.12 | 0.25 | 0.25 | 8 to 16 | 0.12 | 0.12 | 0.12 | 0.12 | 0.5 | 0.25 | 1 | 0.25 | 0.25 | 0.25 | 0.12 | 1 | 0.25 | 0.25 | Antibacterial activity (MIC) (S. aureus NEMC 8769/89-4; unit assumed): 0.03 µg/mL; Antibacterial activity (MIC) (E. coli BAJ9003): ≦0.015; Antibacterial activity (MIC) [7]: 0.12 µg/mL; ED50 (S. aureus SMITH (sens) [8]): 1 to 2 mg/kg; Antibacterial activity (MIC) [9]: 0.12 µg/mL; Antibacterial activity (MIC) (E. faecalis ATCC 29212): 0.12 µg/mL; Antibacterial activity (MIC) [10]: 0.25 µg/mL; Antibacterial activity (MIC) [11]: 0.12 µg/mL; Antibacterial activity (MIC) [12]: 0.5 µg/mL; Antibacterial activity (MIC) [13]: 16 µg/mL; Antibacterial activity (MIC) (S. mariescens FDOR 8733): 2 µg/mL; Antibacterial activity (MIC) [14]: 0.5 µg/mL; Antibacterial activity (MIC) [15]: 0.12 µg/mL
CN(C)CC(=O)Nc1cc(N(C)C)c2c(c1O)C(=O)C1=C(O)C3(O)C(=O)C(C(N)=O)=C(O)C(N(C)C)C3CC1C2.O=S(=O)(O)O.O=S(=O)(O)O (stereo not drawn) [JJ, [4S-(4alpha,12aalpha))-4,7-Bis(dimethylamino)-9-([(dimethylamino)acetyl)amino]-1,4,4a,5,5a,6,11,12a-octahydro-3,10,12,12a-tetrahydroxy-1,11-dioxo-2-naphthacenecarboxamide disulfate] | 1 | 0.25 | 0.12 | 0.25 | 0.25 | 9.6 | 0.25 | 0.03 | 0.12 | 0.25 | 2 | 0.25 | 2 | 1 | 0.25 | 0.25 | 0.25 | 2 | 0.25 | 0.25 | Antibacterial activity (MIC) [16]: 0.25 µg/mL; ED50 (S. aureus SMITH (sens) [2]; Subcutaneous): 0.66 mg/kg; Antibacterial activity (MIC) (S. aureus NEMC 8769/89-4; unit assumed): 0.06 µg/mL; Antibacterial activity (MIC) (E. coli BAJ9003; unit assumed): 0.03 µg/mL; Antibacterial activity (MIC) [7]: 0.12 µg/mL; ED50 (S. aureus SMITH (sens) [8]): 0.61 mg/kg; Antibacterial activity (MIC) [9]: 0.12 µg/mL; Antibacterial activity (MIC) (E. faecalis ATCC 29212): 0.12 µg/mL; Antibacterial activity (MIC) [10]: 0.25 µg/mL; Antibacterial activity (MIC) [11]: 0.25 µg/mL; Antibacterial activity (MIC) [12]: 0.5 µg/mL; Antibacterial activity (MIC) [13]: 8 µg/mL; Antibacterial activity (MIC) (S. mariescens FDOR 8733): 4 µg/mL; Antibacterial activity (MIC) [14]: 2 µg/mL; Antibacterial activity (MIC) [15]: 0.25 µg/mL
CCCCNCC(=O)Nc1cc(N(C)C)c2c(c1O)C(=O)C1=C(O)C3(O)C(=O)C(C(N)=O)=C(O)C(N(C)C)C3CC1C2.Cl.Cl (stereo not drawn) [PP, [4S-(4alpha,12aalpha)]-4,7-Bis(dimethylamino)-9-[[(butylamino)acetyl]amino)-1,4,4a,5,5a,6,11,12a-octahydro-3,10,12,12a-tetrahydroxy-1,11-dioxo-2-naphthacenecarboxamide dihydrochloride] | 2 | 0.5 | 0.25 | 0.5 | 0.5 | >16 | 0.25 | 0.25 | 0.12 | 0.25 | 1 | 0.5 | 2 | 0.5 | 0.25 | 0.25 | 0.5 | 2 | 0.25 | 0.25 | Antibacterial activity (MIC) [16]: 0.5 µg/mL; Antibacterial activity (MIC) (S. aureus NEMC 8769/89-4; unit assumed): 0.12 µg/mL; Antibacterial activity (MIC) (E. coli BAJ9003; unit assumed): 0.12 µg/mL; Antibacterial activity (MIC) [7]: 0.12 µg/mL; ED50 (S. aureus SMITH (sens) [8]): 1 to 2 mg/kg; Antibacterial activity (MIC) [9]: 0.25 µg/mL; Antibacterial activity (MIC) (E. faecalis ATCC 29212): 0.12 µg/mL; Antibacterial activity (MIC) [10]: 0.5 µg/mL; Antibacterial activity (MIC) [11]: 0.5 µg/mL; Antibacterial activity (MIC) [12]: 0.5 µg/mL; Antibacterial activity (MIC) [13]: 16 µg/mL; Antibacterial activity (MIC) (S. mariescens FDOR 8733): 2 µg/mL; Antibacterial activity (MIC) [14]: 2 µg/mL; Antibacterial activity (MIC) [15]: 0.25 µg/mL
CN(C)CC(=O)Nc1cc(N(C)C)c2c(c1O)C(=O)C1=C(O)C3(O)C(=O)C(C(N)=O)=C(O)C(N(C)C)C3CC1C2 (stereo not drawn) [LL, [4S-(4alpha,12aalpha)]-4,7-Bis(dimethylamino)-9-[[(dimethylamino)acetyl]amino]-1,4,4a,5,5a,6,11,12a-octahydro-3,10,12,12a-tetrahydroxy-1,11-dioxo-2-naphthacenecarboxamide] | 0.5 | 0.25 | 0.06 | 0.12 | 0.25 | 4 to 8 | 0.12 | 0.06 | 0.06 | 0.12 | 1 | 0.12 | 1 | 0.5 | 0.12 | 0.12 | 0.12 | 1 | 0.25 | 0.12 | Antibacterial activity (MIC) [16]: 0.12 µg/mL; Antibacterial activity (MIC) (S. aureus NEMC 8769/89-4): ≦0.015; Antibacterial activity (MIC) [7]: 0.06 µg/mL; ED50 (S. aureus SMITH (sens) [8]): 0.25 to 0.5 mg/kg; Antibacterial activity (MIC) [9]: 0.06 µg/mL; Antibacterial activity (MIC) (E. faecalis ATCC 29212): 0.06 µg/mL; Antibacterial activity (MIC) [10]: 0.12 µg/mL; Antibacterial activity (MIC) [11]: 0.12 µg/mL; Antibacterial activity (MIC) [12]: 0.25 µg/mL; Antibacterial activity (MIC) [13]: 4 µg/mL; Antibacterial activity (MIC) (S. mariescens FDOR 8733): 2 µg/mL; Antibacterial activity (MIC) [14]: 1 µg/mL; Antibacterial activity (MIC) [15]: 0.06 µg/mL
